The test system of the data set is GENE-TOX genotoxicity assays, various organisms and cells. Put plainly: GENE-TOX mutagenicity studies. To be noted: for call: Assay Type: In vivo carcinogenicity studies.
The mark [1] stands for this setting: Species/Cell Type: Saccharomyces cerevisiae, Assay Type: Mitotic recombination or gene conversion, Assay Code: YEH+, Evaluation Type: Evaluation A (Pre-1980).
Where [2] appears, read: Species/Cell Type: Salmonella typhimurium (one or more of the five standard strains: TA98, TA100, TA1535, TA1537, and TA1538), Assay Type: Histidine reverse gene mutation, Ames assay, Assay Code: SALT, Evaluation Type: Evaluation A (Pre-1980).
Where [3] appears, read: Species/Cell Type: Drosophila melanogaster, Assay Type: Sex-linked recessive lethal gene mutation, Assay Code: SRLT, Evaluation Type: Evaluation A (Pre-1980).
[4] abbreviates: Species/Cell Type: Nonhuman, Assay Code: CCGT, Evaluation Type: Evaluation A (Pre-1980).
Where [5] appears, read: Species/Cell Type: Human lymphocytes, Assay Type: Sister-chromatid exchange (SCE) in vitro, Assay Code: SCL+D, Dose Response: With dose response, Evaluation Type: Evaluation B (Post-1980).
The mark [6] stands for this setting: Species/Cell Type: Human, Assay Type: Sister-chromatid exchange (SCE) in vitro, Assay Code: SC1+D, Dose Response: With dose response, Evaluation Type: Evaluation B (Post-1980).
The mark [7] stands for this setting: Species/Cell Type: Nonhuman, Assay Code: CCG+, Evaluation Type: Evaluation A (Pre-1980).

The values that follow come from PubChem BioAssay AID1259408 (Genetic Toxicology Data Bank (GENE-TOX), 2018).

Each structure is given as a SMILES string. Activity calls are given as the source filed them. The rule behind the calls is not given here.

As to `O[C@@H]1C=Cc2c(cc3ccc4cccc5ccc2c3c45)[C@H]1O`, the mutagenic call (Species/Cell Type: Chinese hamster lung (V79) cells, Assay Type: Forward gene mutation at the HPRT or ouabain locus, Assay Code: V79+, Evaluation Type: Evaluation A (Pre-1980)) was “active; positive”. Also, where the note is “Species/Cell Type: Nonhuman, Assay Code: CCG+L, Evaluation Type: Evaluation A (Pre-1980)”, the call was “active; positive”.

Consider `C=CC(OC(C)=O)c1ccc2c(c1)OCO2` (configuration not stated), for which the mutagenic call is “active; positive” (Species/Cell Type: Escherichia coli polA (W3119 vs P3478), Assay Type: Rec-assay, DNA effects (bacterial DNA repair), Assay Code: RE1+, Evaluation Type: Evaluation A (Pre-1980)); “active; positive” under setting [1]; “active; positive” (Species/Cell Type: Salmonella typhimurium (one or more of the five standard strains: TA98, TA100, TA1535, TA1537, and TA1538), Assay Type: Histidine reverse gene mutation, Ames assay, Assay Code: SAL+, Evaluation Type: Evaluation A (Pre-1980)).

With `CN(CCCCO)N=O`, the mutagenic call under setting [2] was “no conclusion”.

Consider `CC(C)OC(=O)Nc1ccccc1`, for which the mutagenic call (Species/Cell Type: Vicia faba, Assay Type: Chromosome aberrations, Assay Code: VIC+D, Dose Response: With dose response, Evaluation Type: Evaluation A (Pre-1980)) was “active; positive”.

For the compound `Nc1nc(N)nc(N)n1`, the mutagenic call under setting [3] is reported as “no conclusion”.

On to `Oc1cccc2c1cc1ccc3cccc4ccc2c1c34`, for which the mutagenic call by setting is: (Species/Cell Type: Chinese hamster lung (V79) cells, Assay Type: Forward gene mutation at the HPRT or ouabain locus, Assay Code: V79-*, Activation: With metabolic activation, Evaluation Type: Evaluation A (Pre-1980)) “inactive; negative”; under setting [2], “no conclusion”. Further, the call under setting [4] is given as “no conclusion”.

With `CC(=O)Nc1nc(-c2cc([N+](=O)[O-])c[nH]2)cs1`, under setting [2], the mutagenic call is “no conclusion”.

Consider `CC1=NN(c2ccccc2)C(=O)C1`, for which the call (Species/Cell Type: Nonhuman, Assay Code: CCG-L, Evaluation Type: Evaluation A (Pre-1980)) is “inactive; negative”.

Turning to `OCC(Cl)(Cl)Cl`, the mutagenic call under setting [2] is on record as “no conclusion”.

In the case of `ClC(Cl)Cl`, the mutagenic call (Species/Cell Type: Chinese hamster lung (V79) cells, Assay Type: Forward gene mutation at the HPRT or ouabain locus, Assay Code: V79-, Evaluation Type: Evaluation A (Pre-1980)) is “inactive; negative”; the mutagenic call under setting [5] is “active; positive”; the mutagenic call under setting [6] is “active; positive”; the mutagenic call (Species/Cell Type: Mammalian polychromatic erythrocytes, Assay Type: Micronucleus test, chromosome aberrations, Assay Code: MNTT, Evaluation Type: Evaluation A (Pre-1980)) is “no conclusion”; the mutagenic call (Species/Cell Type: Mouse, Sex: Male, Assay Type: Sperm morphology, Assay Code: SPIT, Evaluation Type: Evaluation A (Pre-1980)) is “no conclusion”; the mutagenic call (Species/Cell Type: Nonhuman, Assay Type: Sister-chromatid exchange (SCE) in vitro, Assay Code: SC2T, Evaluation Type: Evaluation B (Post-1980)) is listed as “no conclusion”. Besides, the mutagenic call (Species/Cell Type: Nonhuman, Assay Type: Sister-chromatid exchange (SCE) in vivo, Assay Code: SC3+D, Dose Response: With dose response, Evaluation Type: Evaluation B (Post-1980)) is “active; positive”; the mutagenic call (Species/Cell Type: Saccharomyces cerevisiae, Assay Type: Mitotic recombination or gene conversion, Assay Code: YEC+, Evaluation Type: Evaluation A (Pre-1980)) was “active; positive”; the mutagenic call under setting [1] is “active; positive”; the mutagenic call (Species/Cell Type: Saccharomyces cerevisiae, Assay Type: Reverse gene mutation, Assay Code: YER+, Evaluation Type: Evaluation A (Pre-1980)) was “active; positive”; the mutagenic call (Species/Cell Type: Syrian hamster embryo (SA7/SHE) cells, Assay Type: Cell transformation, viral enhanced, Assay Code: CT7-, Evaluation Type: Evaluation A (Pre-1980)) was “inactive; negative”. The call under setting [7] is “active; positive”.

`CC1CCc2c1ccc1c2ccc2ccccc21` (configuration not stated): the mutagenic call (Species/Cell Type: Salmonella typhimurium (one or more of the five standard strains: TA98, TA100, TA1535, TA1537, and TA1538), Assay Type: Histidine reverse gene mutation, Ames assay, Assay Code: SAL+*, Activation: With metabolic activation, Evaluation Type: Evaluation A (Pre-1980)) was “active; positive”.

`NC(=O)c1ncn([C@@H]2O[C@H](CO)[C@@H](O)[C@H]2O)c1O`: the mutagenic call (Species/Cell Type: Nonhuman, Assay Type: Sister-chromatid exchange (SCE) in vitro, Assay Code: SC2+D, Dose Response: With dose response, Evaluation Type: Evaluation A (Pre-1980)) was “active; positive”.

Regarding `[Cl][Ag]`, under “Species/Cell Type: Bacillus subtilis (H17 vs M45), Assay Type: Rec-assay, spot test, DNA effects (bacterial DNA repair), Assay Code: REW-, Evaluation Type: Evaluation A (Pre-1980)”, the mutagenic call was “inactive; negative”.

For `O=C(OCN=Nc1ccccc1)c1ccccc1`, the mutagenic call (Species/Cell Type: Escherichia coli polA (W3119 vs P3478), Assay Type: Rec-assay, DNA effects (bacterial DNA repair), Assay Code: RE1T, Evaluation Type: Evaluation A (Pre-1980)) was “no conclusion”.

As to `CCN(CC)CCn1nc2c3c(c(CO)ccc31)Sc1ccccc1-2`, the mutagenic call is, setting by setting: under setting [3], “no conclusion”; (Species/Cell Type: Mouse lymphoma (L5178Y) cells, Assay Type: Forward gene mutation at the thymidine kinase (TK) locus, chromosome aberrations, Assay Code: L51+, Evaluation Type: Evaluation A (Pre-1980)) “active; positive”; (Species/Cell Type: Neurospora crassa, Assay Type: Forward gene mutation, Assay Code: NEF+, Evaluation Type: Evaluation A (Pre-1980)) “active; positive”.

`Nc1nnc(-c2ccc([N+](=O)[O-])o2)s1`: under setting [7], the call is “active; positive”.

On to `NP(=S)(N1CC1)N1CC1`, for which the mutagenic call is “active; positive” under setting [5]; “active; positive” under setting [6]; “active; positive” (Species/Cell Type: Nonhuman, Assay Type: Sister-chromatid exchange (SCE) in vitro, Assay Code: SC2+D, Dose Response: With dose response, Evaluation Type: Evaluation B (Post-1980)).

With `CCCCNC(=O)OCC`, the call under setting [4] was “no conclusion”. The mutagenic call (Species/Cell Type: Nonhuman, Assay Type: Sister-chromatid exchange (SCE) in vitro, Assay Code: SC2-, Evaluation Type: Evaluation A (Pre-1980)) is “inactive; negative”.

In the case of `Cc1cc(C(=O)NCCc2ccc(S(=O)(=O)NC(=O)NN3CCCCCC3)cc2)no1`, the mutagenic call (Species/Cell Type: Nonhuman, Assay Type: Sister-chromatid exchange (SCE) in vivo, Assay Code: SC3T, Evaluation Type: Evaluation B (Post-1980)) is reported as “no conclusion”.

With `Cc1cc2cc3c(C)cc(=O)oc3c(C)c2o1`, the mutagenic call by setting is: (Species/Cell Type: Human lymphocytes, Assay Type: Sister-chromatid exchange (SCE) in vitro, Assay Code: SCLT, Evaluation Type: Evaluation A (Pre-1980)) “no conclusion”; (Species/Cell Type: Human, Assay Type: Sister-chromatid exchange (SCE) in vitro, Assay Code: SC1T, Evaluation Type: Evaluation A (Pre-1980)) “no conclusion”.
